Experimental data taken from patent publication US20230040402A1, “ANTITUMOR DRUG FOR USE IN COMBINATION WITH IMMUNE CHECKPOINT INHIBITOR” (NIPPON SHINYAKU CO., LTD., priority 2019, published 2023).

What was measured:
[1] = system: mouse colorectal cancer cell line CT26; experiment: Test Example 3: mPGES-1 inhibitor and anti-mouse PD-1 antibody in combination in allograft model of mouse colorectal cancer cell line CT26; assay type: in vivo; conditions: female BALB/c mouse, tumor volume on 21st day
Source text: (§1) On the day of transplantation, after the culture supernatant was removed, CT26 was washed with HBSS and collected. Collected CT26 was suspended in HBSS and used as cells for transplantation.
Under anesthesia, 3.0x10^5 cells for transplantation were subcutaneously transplanted into the right-hand side abdomen of each female BALB/c mouse.
(§2) The anti-mouse PD-1 antibody was intraperitoneally administered to the mice of the single therapy group of the anti-mouse PD-1 antibody and the combination therapy group, at a dosage of 100 µg/individual, twice a week after transplantation, from the 7th day of transplantation to the 20th day of transplantation.
Regarding the tumor volume (mm^3), the length and width of a tumor were measured by using an electronic caliper, and the tumor volume was calculated by the following formula.

[2] = system: mouse colorectal cancer cell line CT26; experiment: Test Example 4: mPGES-1 inhibitor and anti-mouse CTLA-4 antibody in combination in allograft model of mouse colorectal cancer cell line CT26; assay type: in vivo; conditions: female BALB/c mouse
Source text: as §1
Under anesthesia, 3.0×10^5 cells for transplantation were subcutaneously transplanted into the right-hand side abdomen of each female BALB/c mouse.
as §2, with “anti-mouse CTLA-4” for “anti-mouse PD-1”, “group with” for “group of”, “combination” for “combination therapy”, “the 8th” for “the 7th”
Regarding the tumor volume (mm^3), the length and width of a tumor were measured by using an electronic caliper, and the tumor volume was calculated by the following formula

[3] = in combination with anti-mouse PD-1 antibody (100 µg/individual i.p. twice a week), compound 100 mg/kg orally twice a day, 7th to 20th day
[4] = used solely, 100 mg/kg (as free form) orally twice a day, 7th to 20th day of transplantation
[5] = in combination with anti-mouse CTLA-4 antibody (100 µg/individual i.p. twice a week), compound 100 mg/kg orally twice a day, 8th to 20th day
[6] = used solely, 100 mg/kg (as free substance) orally twice a day, 8th to 20th day of transplantation

Row | SMILES | tumor growth (tumor volume) [1, 3] | tumor growth (tumor volume) [1, 4] | tumor growth (tumor volume) [2, 5] | tumor growth (tumor volume) [2, 6]
1 | COCc1nc2c(C(=O)Nc3cccc(Cl)c3C)cc(NC(=O)c3ccccc3C(F)(F)F)cc2[nH]1.Cc1ccc(S(=O)(=O)O)cc1 [compound 1, N-(3-chloro-2-methylphenyl)-2-(methoxymethyl)-6-({[2-(trifluoromethyl)phenyl]carbonyl}amino)-1H-benzimidazole-4-carboxamide 4-methylbenzenesulfonate] | tumor growth was suppressed | did not suppress tumor growth | tumor growth was suppressed | did not suppress tumor growth
2 | Cc1c(Cl)cccc1NC(=O)c1cc(NC(=O)c2ccccc2C(F)(F)F)cc2[nH]c(C3(C(F)(F)F)CC3)nc12 [compound 2, N-(3-chloro-2-methylphenyl)-2-[1-(trifluoromethyl)cyclopropyl]-6-({[2-(trifluoromethyl)phenyl]carbonyl}amino)-1H-benzimidazole-4-carboxamide] | tumor growth was suppressed | did not suppress tumor growth | tumor growth was suppressed | did not suppress tumor growth
